Assay [1] concerns bone marrow dendritic cells of C3H/HeOuJ (wild-type) mice. Nature of the assay: Dendritic cell activation (CD40/CD86, flow cytometry), wild-type cells (Example 13). The assay is classed as cell-based, mouse. The note with it: FIG. 7; for expression of CD40 and CD86 on CD11c positive dendritic cells: wild-type dendritic cells, 20 micrograms/millilitre, overnight stimulation; for induction of CD40 and CD86 relative to LPS: wild-type mice dendritic cells. As to the method: (§1) Pathogen-free, female C3H/HeOuJ (wild-type) mice and C3H/HeJ (TLR4 mutant) mice, 6-8 weeks of age were purchased from the Jackson Laboratory (Bar Harbor, Me., USA) and were housed according to institutional guidelines with water and food ad libitum under filter controlled air circulation.
(§2) Dendritic cells were prepared from bone marrow of either wild-type or TLR4 mutant mice as follows. Femurs and tibia bones were isolated from naïve mice and flushed under sterile conditions with phosphate buffered saline. Red blood cells were lysed using ammonium chloride potassium lysing solution. Cells were counted and resuspended in complete RMPI 1640 media containing 10% fetal bovine serum (Hyclone, Nepean, ON, Canada), 1% penicillin-streptomycin (Gibco, Burlington, ON, Canada), 2 millimolar L-glutamine (Gibco), 1% HEPES buffer (Gibco) and […] beta-mercaptoethanol (Sigma-Aldrich, Oakville, ON, Canada) at a concentration of 1.2×10E6 cells/millitre. Cells were cultured in a 6-well plate supplemented with 10 nanograms/milliliter of GM-CSF (Peprotech, Rocky Hill, N.J., USA) for 8 days, additional media was added on day 3 and day 6. On day 7, cells were stimulated with JL-265 or JL-266 prepared in DMSO, or DMSO vehicle control, or poly I:C (Thermo-Fisher), or lipopolysaccharide (LPS; Sigma-Aldrich). Non-adherent cells were collected on day 8 and stained with fluorochrome-conjugated antibodies specific for CD11c (clone), CD40 (clone) or CD86 (Clone). Cells were analyzed by flow cytometry using a FACSCalibur (BD Bioscience, Mississauga ON, Canada) and Win List 3D 7.0 software (Verity Software House, Topsham, Me., USA).
(§3) Results were analysed by gating first on CD11c positive cells (dendritic cell marker), then determining the percent that were double positive for CD40 or CD86.

For assay [2], the system named is bone marrow dendritic cells of C3H/HeJ (TLR4 mutant) mice. Nature of the assay: Dendritic cell activation (CD40/CD86, flow cytometry), TLR4 mutant cells (Example 13). The note with it: FIG. 7; for expression of CD40 and CD86 on CD11c positive dendritic cells, versus wild-type: TLR4 mutant dendritic cells, 20 micrograms/millilitre, overnight stimulation; for induction of CD40 and CD86 relative to LPS: TLR mutant mice dendritic cells. The assay is classed as cell-based, mouse. As to the method: as §1, §2, §3
Background: In flow cytometry, cells or beads pass a laser one at a time.

The subject of assay [3] is C3 tumors (HPV16-expressing C3 cells). Nature of the assay: C3 tumor challenge, aqueous liposome vaccine (Example 10). The assay is classed as in vivo, mouse (C57BL6). The note with it: for Tumor Volume (mm^3): Table 1, Example 10, FP peptide 10 micrograms + lipid A mimic 10 micrograms in liposomes, water carrier, s.c. on day 5 after C3 implantation; for tumor volumes compared to control groups: at 28 days, liposome vaccine, FIG. 4. The source says: (§4) Pathogen-free, female C57BL6 mice, 6-8 weeks of age were purchased from Charles River Laboratories (St. Constant, Quebec, Canada) and were housed according to institutional guidelines with water and food ad libitum under filter controlled air circulation.
(§5) The C3 tumor cell line used in this study is a well-described mouse model for pre-clinical cervical cancer research. HPV16-expressing C3 cells are derived from B6 mouse embryo cells transformed with the complete HPV16 genome under its own promoter and an activated-ras oncogene. The C3 cell line develops tumors when injected subcutaneously and has been used in cancer challenge studies to examine the efficacy of vaccine administered before or after C3 tumor cell implantation. The C3 cell line was maintained in Iscove Modified Dulbecco's Medium (IMDM; Sigma, St. Louis, Mo.) supplemented with 10% heat-inactivated fetal calf serum (Hyclone), 2 mM 1-glutamine, […] 2-mercaptoethanol, penicillin and streptomycin. Cells were incubated at 37° C./5% CO2.
(§6) The HPV16E7 (H-2Db) peptide 49-67, RAHYNIVTF (SEQ ID NO: 1), containing a CTL epitope was fused to PADRE containing a CD4+ T helper epitope by Polypeptide Group (San Diego, Calif., USA). This peptide is hereafter designated as FP.
To formulate the vaccines herein, 160 micrograms of FP was mixed with a DOPC/cholesterol mixture (10:1, w/w, Lipoid GmbH, Germany) dissolved in tert-butanol. When lipid A mimics were included, 160 micrograms of JL-265 or JL-266 were added to the FP/DOPC/chol mixture. The mixture was lyophilized and then reconstituted in reconstituted in […] of sterile water to formulate liposomes containing antigen with or without lipid A mimic. Each vaccine dose was 50 microlitres and contained 10 micrograms of FP peptide with or without 10 micrograms of lipid A mimic (JL-265 or JL-266).
(§7) To test the efficacy of these liposome-based vaccine formulations, groups of mice (7 mice per group) were implanted subcutaneously in the left flank with 5×10E5 C3 cells suspended in 100 microlitres of HBSS media. Five days later, mice were vaccinated subcutaneously in the right flank with 50 microlitres of vaccine. Mice in Group 1 were vaccinated with FP peptide (10 micrograms) in liposomes containing no lipid A mimic. Mice in Group 2 were vaccinated with FP peptide (10 micrograms) in liposomes containing JL-265 (10 micrograms). Mice in Group 3 were vaccinated with FP peptide (10 micrograms) in liposomes containing JL-266 (10 micrograms). Mice in Group 4 served as a tumor growth control and were vaccinated with saline containing no antigen or lipid A mimic.

Assay [4] has the same test system. Nature of the assay: C3 tumor challenge, oil-based (IFA) vaccine (Example 11). The note with it: at 28 days; FP peptide 10 micrograms in oil (IFA) with 10 micrograms lipid A mimic, FIG. 5. The assay is classed as in vivo, mouse (C57BL6).
From the text: as §4, §5, §6
To formulate the vaccine herein, FP peptide was solubilized in dimethyl sulfoxide and mixed with Incomplete Freund's adjuvant (IFA). […]

Assay [5] has the same test system. Nature of the assay: C3 tumor challenge, DepoVax (DPX) vaccine (Example 12). The assay is classed as in vivo, mouse (C57BL6). The conditions noted are these: for tumor volume fold smaller than control DepoVax composition (Group 1): Table 2, DepoVax; for Tumor Volume (mm^3): Table 2, Example 12, FP peptide 10 micrograms + lipid A mimic 10 micrograms in DepoVax, s.c. on day 5 after C3 implantation; for tumor volumes compared to control groups: at 40 days, DPX vaccine, FIG. 6.
From the text: as §4, §5, §6
(§8) To formulate vaccines described herein, a 10:1 mixture of dioleoyl phosphatidylcholine (DOPC) (120 milligrams/mL) and cholesterol (12 milligrams/mL) was solubilized in tert-butanol. FP antigen was first solubilized in dimethyl sulfoxide, although a water suspension of FP can also be used, and then added to the DOPC/cholesterol/tert-butanol mixture. The lipid A mimics JL-265 and JL-266 were first solubilized in dimethyl sulfoxide. Where indicated, JL-265 or JL-266 were also added to the FP/DOPC/tert-butanol mixture. A dry homogeneous mixture of antigen with or without lipid A mimic was prepared by removing the solvent and water present in the formulation by lyophilization. The dry mixture was then suspended in Incomplete Freund's adjuvant, a mineral oil-based model hydrophobic carrier. This formulation is henceforth referred to as DepoVax (DPX).
as §7, with “oil-based” for “liposome-based”, “(8” for “(7”, “DPX” for “liposomes”

Assay [6] relates to antigen-specific IFN-gamma response to R9F peptide (splenocytes). Put plainly: IFN-gamma ELISPOT immunogenicity of DPX vaccine (Example 14). The assay is classed as in vivo, mouse (C57BL6). The note with it: R9F+F21E in DPX with 5 micrograms lipid A mimic, FIG. 8; for enhancement of antigen-specific IFN-gamma response to R9F: s.c., spleens eight days after vaccination.
From the text: as §4
The peptides used in this example were synthesized by Polypeptide Group (San Diego, Calif., USA). Vaccines contained the MHC class I epitope HPV16E7 (H-2Db) 49-67 (RAHYNIVTF, R9F; […]; SEQ ID NO: 23).
as §8, with “R9F and F21E peptide antigens were” for “FP antigen was”, “sulfoxide” for “sulfoxide, although a water suspension of FP can also be used,”
To test the immunogenicity of the vaccine, naïve mice (n=5) were immunized subcutaneously with 50 microlitres of DPX vaccine containing R9F and F21E with no lipid A mimic (Group 1), 5 micrograms of JL-265 (Group 2) or 5 micrograms of JL-266 (Group 3). Mice in Group 4 (n=2) were not immunized and served as the naïve control. Eight days after vaccination, mice in all groups were terminated and spleens collected. A single cell suspension of splenocytes was prepared at a concentration of 5×10E6 cells per milliliter and 100 microlitres added to wells of a 96-well ELISPOT plate pre-coated with anti-IFN-gamma (BD Bioscience). In duplicate, 100 microlitres of media containing 20 micrograms per milliliter of an irrelevant peptide antigen or R9F was added to the splenocytes, or media containing no peptide as a background control. The plate was incubated overnight at 37° C. and developed next day following manufacturers instructions using AEC chromogen (Sigma-Aldrich). Spots were quantified using ELISPOT plate reader (C.T.L., Shaker Heights).

Consider 4 molecules from US10988500B2, “Lipid A mimics, methods of preparation, and uses thereof” (Immunovaccine Technologies Inc., priority 2015, dated 2021).

Regarding poly I:C [reference compound], the “expression of CD40 and CD86 on CD11c positive dendritic cells” value in assay [1] was “increase in expression”. Also, the results for the “expression of CD40 and CD86 on CD11c positive dendritic cells, versus wild-type” value (shortened to “expression of CD40 and CD86 … versus wild-type”) in assay [2] and in assay [2] (listed as polyI:C) were “comparably to wild-type dendritic cells” and “comparable stimulation”, respectively.

As to “lipopolysaccharide [LPS, reference compound]”, the “expression of CD40 and CD86 on CD11c positive dendritic cells” value in assay [1] is reported as “increase in expression”. Further, the “expression of CD40 and CD86 … versus wild-type” value in assay [2] is recorded as “significantly reduced”.

`CCCCCCCCCCCCCC(=O)O[C@H](CCCCCCCCCCC)CC(=O)NC1C(OC(=O)C[C@@H](CCCCCCCCCCC)OC(=O)CCCCCCCCCCCCC)[C@H](OP(=O)(O)O)C(CO)O[C@H]1OCCN(C(=O)C[C@@H](CCCCCCCCCCC)OC(=O)CCCCCCCCCCCCC)c1cccc(OP(=O)(O)O)c1` (stereo in doubt) [JL-266]: in assay [3], the “Tumor Volume (mm^3)” value is reported as 380 ± 86 mm^3 and the “tumor volumes compared to control groups” value is on record as “significantly smaller tumor volumes”. The “tumor volumes compared to control groups” value in assay [4] is reported as “significantly smaller tumor volumes”. In assay [5], the “tumor volume fold smaller than control DepoVax composition (Group 1)” value is about 6.3 fold, the “Tumor Volume (mm^3)” value stood at 219 ± 139 mm^3 and the “tumor volumes compared to control groups” value is “significantly smaller tumor volumes”. Moreover, in assay [1], the “expression of CD40 and CD86 on CD11c positive dendritic cells” value is recorded as “strong increased expression”; the “induction of CD40 and CD86 relative to LPS” value is given as “the same as LPS”. In assay [2], the “expression of CD40 and CD86 … versus wild-type” value was “significantly reduced”; the “induction of CD40 and CD86 relative to LPS” value is recorded as “slightly lower induction”. Moreover, in assay [6] (versus no lipid A mimic), the “enhancement of antigen-specific IFN-gamma response to R9F” value is given as “did” and the “increase in the immune response (IFN-gamma ELISPOT)” value is reported as about 2 fold.

On to `CCCCCCCCCCCCCC(=O)O[C@H](CCCCCCCCCCC)CC(=O)NC1C(OC(=O)C[C@@H](CCCCCCCCCCC)OC(=O)CCCCCCCCCCCCC)[C@H](OP(=O)(O)O)C(CO)O[C@H]1OCCN(C(=O)C[C@@H](CCCCCCCCCCC)OC(=O)CCCCCCCCCCCCC)c1cccc(O)c1` (stereo in doubt) [JL-265], for which, in assay [3], the “Tumor Volume (mm^3)” value is listed as 319 ± 122 mm^3 and the “tumor volumes compared to control groups” value was “significantly smaller tumor volumes”. In addition, the “tumor volumes compared to control groups” value in assay [4] is listed as “significantly smaller tumor volumes”. In addition, in assay [5], the “tumor volume fold smaller than control DepoVax composition (Group 1)” value is “about 3.1 fold”, the “Tumor Volume (mm^3)” value was 445 ± 395 mm^3 and the “tumor volumes compared to control groups” value was “significantly smaller tumor volumes”. In assay [1], the “expression of CD40 and CD86 on CD11c positive dendritic cells” value is listed as “strong increased expression”; the “induction of CD40 and CD86 relative to LPS” value is listed as “the same as LPS”. In assay [2], the “expression of CD40 and CD86 … versus wild-type” value was “significantly reduced”; the “induction of CD40 and CD86 relative to LPS” value is “slightly lower induction”. Also, the “enhancement of antigen-specific IFN-gamma response to R9F” value in assay [6] (versus no lipid A mimic) was “did not enhance”. Moreover, the “generation of an immune response (IFN-gamma ELISPOT)” value in assay [6] is recorded as “capable of generating an immune response”.
